The record followed here is patent US6696418B1, “Somatostatin antagonists and agonists that act at the SST subtype 2 receptor” (Pfizer Inc., priority 1999, dated 2004).

The test system of this experiment is GH4C1 cells. The experiment can be described thus: Rat pituitary assay for somatostatin receptor antagonists (cAMP content of GH4C1 cells). Type of experiment: cell-based. From the text: This assay is designed to quantitate the activity of antagonists of somatostatin that interact directly at the somatostatin receptor. The assay facilitates discovery of agents which increase growth hormone secretion by modulating the inhibitory effects of somatostatin. As aforementioned, somatostatin (also abbreviated SRIF) inhibits GH secretion in the anterior pituitary by binding to a high affinity membrane-bound (and G-protein coupled) receptor which is coupled negatively to adenyl cyclase, thereby reducing intracellular levels of cAMP that would otherwise facilitate, for example, secretion/release of GH from cytoplasmic granules. […] The screen is designed to quantitate the ability of test agents to reverse SRIF's inhibition of the elevated intracellular cAMP levels produced by VIP. […]
In particular, cyclic AMP (cAMP) content of the pituitary cell line GH4C1 was used to differentiate somatostatin agonists from antagonists. […] This afforded a convenient way to conduct a homogenous immunoradiometric assay of cAMP content in cells lysed in situ, following incubation of the cells with test compound. cAMP content in the GH4C1 cells was determined according to the manufacturer's instructions, by comparison with standards at concentrations from 10 to 1,000 nM cAMP. […]

Where no end group is shown, it is not given here.

As to `C[C@H](N)C(=O)NCC(=O)N[C@H]1CSSC[C@@H](C(=O)O)NC(=O)[C@H](CO)NC(=O)[C@H]([C@@H](C)O)NC(=O)[C@H](Cc2ccccc2)NC(=O)[C@H]([C@@H](C)O)NC(=O)[C@H](CCCCN)NC(=O)[C@H](Cc2c[nH]c3ccccc23)NC(=O)[C@H](Cc2ccccc2)NC(=O)[C@H](Cc2ccccc2)NC(=O)[C@H](CC(N)=O)NC(=O)[C@H](CCCCN)NC1=O` [somatostatin, somatostatin 14], for the setting “10 nM somatostatin 14 in the presence of 100 nM VIP”, the “effect on VIP-elevated cAMP content of the GH4C1 cells” value is listed as “partial inhibition”.
In the case of “vasoactive intestinal peptide (HSDAVFTDNYTRLRKQMAVKKYLNSILN; ends and bridges not checked; UniProt P01282 125-152, looked up) [VIP]”, the “effect on cAMP content of the GH4C1 cells” value (100 nM VIP) is “increased cAMP content”.
